PubChem BioAssay AID330 (DTP/NCI, 2004)
Where “and” joins values, the source holds several entries; their conditions need not be identical. Identical values can stand only once. Inconclusive results and toxic doses are left out. The calls were made as follows: active = survival T/C of 150% or more; inactive = T/C below 125% in these data.

System: P388 leukemia ip, CD2F1 mice, survival T/C
Assay: NCI In Vivo Anticancer Drug Screen. Data for tumor model P388 Leukemia (intraperitoneal) in CD2F1 (CDF1) mice
Conditions: endpoint: median survival time, higher = longer survival
Procedure, shortened: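 Mice carrying the transplanted tumor received test compound or vehicle. Survival was recorded in each group, and the value is the treated-group measurement divided by that of the vehicle-treated control group.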

[1] = dose: 25.0 mg/kg/injection, schedule: Q01DX009 (ip), vehicle: saline
[2] = dose: 50.0 mg/kg/injection, schedule: Q01DX009 (ip), vehicle: saline
[3] = dose: 100.0 mg/kg/injection, schedule: Q01DX009 (ip), vehicle: saline
[4] = dose: 50.0 mg/kg/injection, schedule: Q01DX009 (ip), vehicle: saline with Tween-80
[5] = dose: 100.0 mg/kg/injection, schedule: Q01DX009 (ip), vehicle: saline with Tween-80
[6] = dose: 200.0 mg/kg/injection, schedule: Q01DX009 (ip), vehicle: saline with Tween-80
[7] = dose: 200.0 mg/kg/injection, schedule: Q01DX009 (ip), vehicle: saline
[8] = dose: 200.0 mg/kg/injection, schedule: Q01DX009 (ip), vehicle: Klucel (hydroxypropylcellulose) (HPC)
[9] = dose: 50.0 mg/kg/injection, schedule: Q01DX005 (ip), vehicle: saline
[10] = dose: 100.0 mg/kg/injection, schedule: Q01DX005 (ip), vehicle: saline
[11] = dose: 60.0 mg/kg/injection, schedule: Q01DX005 (ip), vehicle: saline with Tween-80
[12] = dose: 120.0 mg/kg/injection, schedule: Q01DX005 (ip), vehicle: saline with Tween-80
[13] = dose: 240.0 mg/kg/injection, schedule: Q01DX005 (ip), vehicle: saline with Tween-80
[14] = dose: 50.0 mg/kg/injection, schedule: Q01DX005 (ip), vehicle: Klucel (hydroxypropylcellulose) (HPC)
[15] = dose: 100.0 mg/kg/injection, schedule: Q01DX005 (ip), vehicle: Klucel (hydroxypropylcellulose) (HPC)
[16] = dose: 200.0 mg/kg/injection, schedule: Q01DX005 (ip), vehicle: Klucel (hydroxypropylcellulose) (HPC)
[17] = dose: 50.0 mg/kg/injection, schedule: Q01DX005 (ip), vehicle: saline with Tween-80
[18] = dose: 200.0 mg/kg/injection, schedule: Q01DX005 (ip), vehicle: saline with Tween-80

Measured: T/C

c1ccc2c(c1)NCCOCCNc1ccccc1OCCNCCO2
inactive: dose: 25.0 mg/kg/injection, schedule: Q01DX001 (ip), vehicle: saline with Tween-80 100 % of control | dose: 50.0 mg/kg/injection, schedule: Q01DX001 (ip), vehicle: saline with Tween-80 96 % of control | dose: 100.0 mg/kg/injection, schedule: Q01DX001 (ip), vehicle: saline with Tween-80 89 % of control and 92 % of control

BrCc1cn2ccccc2n1
inactive: [1] 92 % of control | [2] 100 % of control | [3] 104 % of control

C=CC(C)(C)c1c(OC)oc(-c2ccccc2)cc1=O
inactive: dose: 5.0 mg/kg/injection, schedule: Q01DX005 (ip), vehicle: saline + Tween-80 + alcohol 106 % of control | dose: 10.0 mg/kg/injection, schedule: Q01DX005 (ip), vehicle: saline + Tween-80 + alcohol 111 % of control | dose: 20.0 mg/kg/injection, schedule: Q01DX005 (ip), vehicle: saline + Tween-80 + alcohol 106 % of control | dose: 40.0 mg/kg/injection, schedule: Q01DX005 (ip), vehicle: saline + Tween-80 + alcohol 110 % of control

NC(=O)CC1(c2ccccc2)CCCCC1
inactive: [4] 111 % of control | [5] 102 % of control | [6] 104 % of control

Clc1cccnc1Cl
inactive: [2] 100 % of control and 110 % of control | [3] 103 % of control and 105 % of control | [7] 99 % of control and 106 % of control | dose: 400.0 mg/kg/injection, schedule: Q01DX009 (ip), vehicle: saline 97 % of control

O=C1C(C2=CCCCC2)CCCC1C1=CCCCC1 (stereo unspecified)
inactive: [4] 89 % of control | [5] 91 % of control | [6] 104 % of control

O=C1[C@@H]2C3C=CC([C@H]4C(=O)N(CO)C(=O)[C@@H]34)[C@@H]2C(=O)N1CO
active: [8] 152 % of control and 160 % of control
inactive: dose: 25.0 mg/kg/injection, schedule: Q01DX009 (ip), vehicle: Klucel (hydroxypropylcellulose) (HPC) 114 % of control

CC1(C)N=C(N)N=C(N)N1c1cccc(CCCCc2ccccc2)c1
inactive: dose: 0.75 mg/kg/injection, schedule: Q01DX009 (ip), vehicle: saline sonified 109 % of control | dose: 1.5 mg/kg/injection, schedule: Q01DX009 (ip), vehicle: saline sonified 113 % of control | dose: 3.0 mg/kg/injection, schedule: Q01DX009 (ip), vehicle: saline sonified 118 % of control | dose: 50.0 mg/kg/injection, schedule: Q04DX003 (ip), vehicle: saline sonified 86 % of control

CSCCCNCc1ccc([N+](=O)[O-])cc1
inactive: [9] 97 % of control | [10] 111 % of control

COc1ccccc1N1C(=O)CC(Sc2ccccc2N)C1=O (stereo unspecified)
inactive: dose: 100.0 mg/kg/injection, schedule: Q04DX003 (ip), vehicle: saline with Tween-80 104 % of control | dose: 200.0 mg/kg/injection, schedule: Q04DX003 (ip), vehicle: saline with Tween-80 90 % of control | dose: 400.0 mg/kg/injection, schedule: Q04DX003 (ip), vehicle: saline with Tween-80 90 % of control

COc1ccc(/C=N\S(=O)(=O)c2ccc(OC)cc2)cc1
inactive: dose: 50.0 mg/kg/injection, schedule: Q01DX009 (ip), vehicle: Klucel (hydroxypropylcellulose) (HPC) 111 % of control | dose: 100.0 mg/kg/injection, schedule: Q01DX009 (ip), vehicle: Klucel (hydroxypropylcellulose) (HPC) 102 % of control | [8] 95 % of control

COc1cccc(/C=N/NC(=O)CNC(=O)Nc2cccc([N+](=O)[O-])c2)c1OC
inactive: [11] 90 % of control | [12] 89 % of control and 96 % of control | [13] 99 % of control and 100 % of control

O=[N+]([O-])c1cccc2nsnc12
inactive: dose: 6.25 mg/kg/injection, schedule: Q01DX009 (ip), vehicle: saline with Tween-80 100 % of control | dose: 12.5 mg/kg/injection, schedule: Q01DX009 (ip), vehicle: saline with Tween-80 116 % of control | dose: 25.0 mg/kg/injection, schedule: Q01DX009 (ip), vehicle: saline with Tween-80 94 % of control | [4] 107 % of control

O=C1CCSC(=S)N1c1ccc(F)cc1F
inactive: dose: 6.25 mg/kg/injection, schedule: Q01DX009 (ip), vehicle: saline 92 % of control | dose: 12.5 mg/kg/injection, schedule: Q01DX009 (ip), vehicle: saline 94 % of control | [1] 91 % of control | [3] 96 % of control | [7] 90 % of control | dose: 200.0 mg/kg/injection, schedule: Q01DX009 (ip), vehicle: suspension in saline 92 % of control

CC(C)CC(NC(=O)CCNC(=O)OCc1ccccc1)C(=O)O (stereo unspecified)
inactive: [14] 100 % of control | [15] 101 % of control | [16] 91 % of control

COP(=O)(OC)C(=[N+]=[N-])P(=O)(OC(C)C)OC(C)C
inactive: dose: 100.0 mg/kg/injection, schedule: Q01DX001 (ip), vehicle: saline 99 % of control | dose: 200.0 mg/kg/injection, schedule: Q01DX001 (ip), vehicle: saline 101 % of control | dose: 400.0 mg/kg/injection, schedule: Q01DX001 (ip), vehicle: saline 100 % of control

CN1CCCC1CN1CCCC1 (stereo unspecified)
inactive: [9] 107 % of control | [10] 102 % of control | dose: 200.0 mg/kg/injection, schedule: Q01DX005 (ip), vehicle: saline 98 % of control

Fc1ccc(Nc2nnc(-c3ccc(Cl)cc3Cl)o2)cc1
inactive: dose: 12.5 mg/kg/injection, schedule: Q01DX005 (ip), vehicle: saline with Tween-80 97 % of control | dose: 25.0 mg/kg/injection, schedule: Q01DX005 (ip), vehicle: saline with Tween-80 99 % of control | [17] 93 % of control and 97 % of control | [18] 96 % of control

CC(Nc1ncnc2c1CCc1ccccc1-2)C(=O)O (stereo unspecified)
inactive: dose: 100.0 mg/kg/injection, schedule: Q04DX002 (ip), vehicle: saline with Tween-80 100 % of control | dose: 200.0 mg/kg/injection, schedule: Q04DX002 (ip), vehicle: saline with Tween-80 94 % of control

O=c1cc[nH]c2ccccc12
inactive: [2] 96 % of control | [3] 92 % of control | [7] 97 % of control

[NH-]C(CO)C(O)c1ccccc1.[NH-]C(CO)C(O)c1ccccc1.[NH-]C(CO)C(O)c1ccccc1.[Pr+3] (stereo unspecified)
inactive: [14] 103 % of control | [15] 97 % of control | [16] 99 % of control

COc1ccccc1C(=O)c1ccccc1C(=O)O
inactive: [14] 101 % of control | [15] 105 % of control | [16] 103 % of control

C=C1C=CN(C(C)=O)C(OC(C)=O)C1SC(C)(C)C (stereo unspecified)
inactive: [11] 97 % of control | [12] 95 % of control | [13] 97 % of control

O=S(=O)(O)CCC(O)S(=O)(=O)O (stereo unspecified)
inactive: dose: 60.0 mg/kg/injection, schedule: Q01DX005 (ip), vehicle: saline 102 % of control | dose: 120.0 mg/kg/injection, schedule: Q01DX005 (ip), vehicle: saline 108 % of control | dose: 240.0 mg/kg/injection, schedule: Q01DX005 (ip), vehicle: saline 94 % of control

CC(=O)c1c(-c2ccc(Cl)cc2)c(-c2ccc(Cl)cc2)nn(C(C)CO)c1=O (stereo unspecified)
inactive: [17] 103 % of control | dose: 100.0 mg/kg/injection, schedule: Q01DX005 (ip), vehicle: saline with Tween-80 100 % of control | [18] 97 % of control

C=CC1(OC)CC1C(=O)OCC (stereo unspecified)
inactive: dose: 43.0 mg/kg/injection, schedule: Q01DX005 (ip), vehicle: Klucel (hydroxypropylcellulose) (HPC) 99 % of control | dose: 86.0 mg/kg/injection, schedule: Q01DX005 (ip), vehicle: Klucel (hydroxypropylcellulose) (HPC) 112 % of control | dose: 172.0 mg/kg/injection, schedule: Q01DX005 (ip), vehicle: Klucel (hydroxypropylcellulose) (HPC) 97 % of control

CNc1ccc2[nH]c3ccccc3c2c1
inactive: [11] 104 % of control | [12] 112 % of control | [13] 104 % of control

COc1ccc2c(c1)C(=O)CC(COS(=O)(=O)c1ccc(C)cc1)C2 (stereo unspecified)
inactive: [4] 107 % of control | [5] 101 % of control | [6] 99 % of control

COc1cc2c(c(O)c1O)C(=O)c1c(O)cc(C)cc1C2=O
inactive: dose: 5.0 mg/kg/injection, schedule: Q01DX009 (ip), vehicle: saline with Tween-80 108 % of control | dose: 10.0 mg/kg/injection, schedule: Q01DX009 (ip), vehicle: saline with Tween-80 117 % of control | dose: 20.0 mg/kg/injection, schedule: Q01DX009 (ip), vehicle: saline with Tween-80 108 % of control

CC(=NCCCCN=C(C)c1cc(C)cc(Br)c1O)c1cc(C)cc(Br)c1O
inactive: dose: 25.0 mg/kg/injection, schedule: Q01DX005 (ip), vehicle: Klucel (hydroxypropylcellulose) (HPC) 100 % of control | [14] 96 % of control | [15] 95 % of control | [16] 98 % of control
